Data reported in patent EP0308983A2, “NMR imaging with Mn(II) coordination compositions” (priority 1987, dated 1989).

Columns and labels:
[1] = Paramagnetic relaxation properties in human plasma at 37°C; assay type: physicochemical; settings: for T₂ value / T₁ value / R₁ / R₂ / T₁ changed by (repeat measurement) / T₂ changed by (repeat measurement): 37°C; for T₁ value: triplicate; for T₁ changed by (repeat measurement) / T₂ changed by (repeat measurement): repeat measurement 80 minutes later; for T₂ relaxivity in plasma, fold greater than GdDTPA: versus GdDTPA; for T₁ relaxivity in plasma, fold greater than GdDTPA: versus gadolinium diethylenetriaminepentaacetic acid chelate (GdDTPA)
[2] = Paramagnetic relaxation properties in water at 10 MHz (0.15T), RADX spin analyzer; assay type: physicochemical; settings: 10 MHz (0.15T); for spin-lattice (T₁) relaxation value / spin-spin (T₂) relaxation value: 37°C, triplicate, mean +/- SD; for millimolar relaxivity for T₁ / millimolar relaxivity for T₂: in water; for millimolar relaxivity for T₁: calculated from T₁ and concentration; for millimolar relaxivity for T₂: calculated from T₂ and concentration
Protocol: The paramagnetic relaxation properties of [manganese(II)·(H₂O)₂·(L-alanine)₂]⁺²(Cl₂)⁻² in water were measured at 10 MHz (0.15T) with a spin analyzer (RADX; Houston, TX) at 37°C. After thermal equilibrium, the spin-lattice (T₁) and spin-spin (T₂) relaxation values were measured in triplicate.
The paramagnetic relaxation of the title compound in water was measured at 10 MHz (0.15T) with a spin analyzer (RADX; Houston, TX). After thermal equilibrium, the spin-lattice (T₁) and spin-spin (T₂) relaxation values were measured.
Relaxivity was measured at 10 MHz (0.15T) as described in Example 10.
The relaxivity of the title compound was performed at 0.15 T (10 MHz) with a RADX Spin Analyzer (Houston, TX) at 37°C.

Row | SMILES | R₁ [1] | R₂ [1] | T₁ changed by (repeat measurement) [1] | T₂ changed by (repeat measurement) [1] | T₂ relaxivity in plasma, fold greater than GdDTPA [1] | T₁ relaxivity in plasma, fold greater than GdDTPA [1] | millimolar relaxivity for T₁ [2] | millimolar relaxivity for T₂ [2] | T₂ value ([1]; 92 µM final concentration) | T₁ value ([1]; 92 µM final concentration) | spin-lattice (T₁) relaxation value ([2]; 0.97 mM solution in water) | spin-spin (T₂) relaxation value ([2]; 0.97 mM solution in water) | T₂ value ([1]; 90 µM final concentration) | T₁ value ([1]; 90 µM final concentration) | other results
1 | N[C@@H](CO)C(=O)O.N[C@@H](CO)C(=O)O.O.O.[Cl-].[Cl-].[Mn+2] [Manganese(II)·(H₂O)₂·(L-serine)₂]⁺²(Cl₂)⁻²] | 45.2 mM⁻¹ s⁻¹ | 56.9 mM⁻¹ s⁻¹ | 3% | 2% | 11.9 fold | 9.4 fold | 9.19 mM⁻¹ s⁻¹ | 37.8 mM⁻¹ s⁻¹ |  |  |  |  |  |  | T₂ value ([1]; 93 µM final concentration): 189 ± 6 ms; T₁ value ([1]; 93 µM final concentration): 238 ± 9 ms; spin-lattice (T₁) relaxation value ([2]; 0.989 mM solution in water): 111 ± 2 ms; spin-spin (T₂) relaxation value ([2]; 0.989 mM solution in water): 27 ± 1 ms
2 | C[C@@H](O)[C@H](N)C(=O)O.C[C@@H](O)[C@H](N)C(=O)O.O.O.[Cl-].[Cl-].[Mn+2] [Manganese(II)·(H₂O)₂·(L-threonine)₂]⁺²(Cl₂)⁻²] | 45.1 mM⁻¹ s⁻¹ | 55.5 mM⁻¹ s⁻¹ | 1% | 11% | 11.6 fold | 9.4 fold | 9.82 mM⁻¹ s⁻¹ | 36.8 mM⁻¹ s⁻¹ | 196 ± 17 ms | 241 ± 7 ms | 105 ± 1 ms | 28 ± 1 ms |  |  | 
3 | CC(C)[C@H](N)C(=O)O.CC(C)[C@H](N)C(=O)O.O.O.[Cl-].[Cl-].[Mn+2] [Manganese(II)·(H₂O)₂·(L-valine)₂]⁺²(Cl₂)⁻²] | 43.5 mM⁻¹ s⁻¹ | 56.9 mM⁻¹ s⁻¹ | 4% | 4% | 11.9 fold | 9.1 fold | 9.12 mM⁻¹ s⁻¹ | 39.7 mM⁻¹ s⁻¹ | 191 ± 8 ms | 250 ± 2 ms | 113 ± 10 ms | 26 ± 1 ms |  |  | 
4 | C[C@H](N)C(=O)O.C[C@H](N)C(=O)O.O.O.[Cl-].[Cl-].[Mn+2] [[Manganese(II)·(H₂O)₂·(L-alanine)₂]⁺²(Cl₂)⁻²] | 44.7 mM⁻¹ s⁻¹ | 56.9 mM⁻¹ s⁻¹ | 3% | 1% | 11.9 fold | 9.3 fold | 9.81 mM⁻¹ s⁻¹ | 39.3 mM⁻¹ s⁻¹ |  |  |  |  |  |  | T₂ value ([1]; 94 µM final concentration): 187 ± 3 ms; T₁ value ([1]; 94 µM final concentration): 238 ± 11 ms; spin-lattice (T₁) relaxation value ([2]; 0.99 mM solution in water): 104 ± 9 ms; spin-spin (T₂) relaxation value ([2]; 0.99 mM solution in water): 26 ± 1 ms
5 | N=C(N)NCCC[C@H](N)C(=O)O.N=C(N)NCCC[C@H](N)C(=O)O.O.O.[Cl-].[Cl-].[Mn+2] [[Manganese(II)·(H₂O)₂·(L-arginine)₂]⁺²(Cl₂)⁻²] | 24.8 mM⁻¹ s⁻¹ | 37.9 mM⁻¹ s⁻¹ | 8% | 22% | 7.9 fold | 5.2 fold | 2.96 mM⁻¹ s⁻¹ | 10.6 mM⁻¹ s⁻¹ | 287 ± 11 ms | 439 ± 27 ms | 348 ± 7 ms | 97 ± 4 ms |  |  | 
6 | NC(=O)CC[C@H](N)C(=O)O.NC(=O)CC[C@H](N)C(=O)O.O.O.[Cl-].[Cl-].[Mn+2] [[Manganese(II)·(H₂O)₂·(L-glutamine)₂]⁺²(Cl₂)⁻²] | 44.3 mM⁻¹ s⁻¹ | 59.1 mM⁻¹ s⁻¹ | 5% | did not change | 12.3 fold | 9.2 fold | 9.75 mM⁻¹ s⁻¹ | 39.0 mM⁻¹ s⁻¹ |  |  |  |  | 188 ± 8 ms | 251 ± 18 ms | spin-lattice (T₁) relaxation value ([2]; 0.95 mM solution in water): 108 ± 3 ms; spin-spin (T₂) relaxation value ([2]; 0.95 mM solution in water): 27 ± 0 ms
7 | N[C@@H](Cc1c[nH]cn1)C(=O)O.N[C@@H](Cc1c[nH]cn1)C(=O)O.O.O.[Cl-].[Cl-].[Mn+2] [[Manganese(II)·(H₂O)₂·(L-histidine)₂]⁺²(Cl₂)⁻²] | 46.3 mM⁻¹ s⁻¹ | 58.4 mM⁻¹ s⁻¹ | 12% | 1% | 12.2 fold | 9.7 fold | 9.20 mM⁻¹ s⁻¹ | 35.6 mM⁻¹ s⁻¹ | 186 ± 3 ms | 235 ± 2 ms | 112 ± 4 ms | 29 ± 1 ms |  |  | 
8 | O.O.O=C(O)[C@@H]1C[C@@H](O)CN1.O=C(O)[C@@H]1C[C@@H](O)CN1.[Cl-].[Cl-].[Mn+2] [[Manganese(II)·(H₂O)₂·(L-hydroxyproline)₂]⁺²(Cl₂)⁻²] | 43.7 mM⁻¹ s⁻¹ | 56.9 mM⁻¹ s⁻¹ | did not change | 1% | 11.9 fold | 9.1 fold | 9.19 mM⁻¹ s⁻¹ | 39.3 mM⁻¹ s⁻¹ |  |  |  |  |  |  | T₂ value ([1]; 93 µM final concentration): 189 ± 9 ms; T₁ value ([1]; 93 µM final concentration): 246 ± 13 ms; spin-lattice (T₁) relaxation value ([2]; 0.98 mM solution in water): 111 ± 3 ms; spin-spin (T₂) relaxation value ([2]; 0.98 mM solution in water): 26 ± 1 ms
9 | CC[C@H](C)[C@H](N)C(=O)O.CC[C@H](C)[C@H](N)C(=O)O.O.O.[Cl-].[Cl-].[Mn+2] [[Manganese(II)·(H₂O)₂·(L-isoleucine)₂]⁺²(Cl₂)⁻²] | 47.3 mM⁻¹ s⁻¹ | 61.1 mM⁻¹ s⁻¹ | 2% | 8% | 12.7 fold | 9.9 fold | 9.66 mM⁻¹ s⁻¹ | 37.6 mM⁻¹ s⁻¹ |  |  |  |  | 182 ± 5 ms | 235 ± 7 ms | spin-lattice (T₁) relaxation value ([2]; 0.99 mM solution in water): 109 ± 7 ms; spin-spin (T₂) relaxation value ([2]; 0.99 mM solution in water): 28 ± 1 ms
10 | CC(C)C[C@H](N)C(=O)O.CC(C)C[C@H](N)C(=O)O.O.O.[Cl-].[Cl-].[Mn+2] [[Manganese(II)·(H₂O)₂·(L-leucine)₂]⁺²(Cl₂)⁻²] | 45.7 mM⁻¹ s⁻¹ | 57.9 mM⁻¹ s⁻¹ | 5% | 4% | 12.1 fold | 9.5 fold | 9.33 mM⁻¹ s⁻¹ | 39.4 mM⁻¹ s⁻¹ |  |  |  |  | 192 ± 0 ms | 243 ± 13 ms | spin-lattice (T₁) relaxation value ([2]; 0.94 mM solution in water): 114 ± 9 ms; spin-spin (T₂) relaxation value ([2]; 0.94 mM solution in water): 27 ± 1 ms
